Source: US7109294B2, “Bacterial glycosyltransferase polypeptides involved in antibiotic resistance” (priority 2001, dated 2006)

Legend:
Assay type in all cases: cell-based, Pseudomonas aeruginosa
[1] = tested on: 45E7 mutant planktonic cells; experiment: microbe, parasite or virus in culture; details: for MBC: Pseudomonas aeruginosa, read-out: MBC-P, MBC of planktonically grown cells
[2] = tested on: 30B1 mutant planktonic cells; experiment: microbe, parasite or virus in culture; details: for MBC: Pseudomonas aeruginosa, read-out: MBC-P, MBC of planktonically grown cells
[3] = tested on: P. aeruginosa PA14 wild type planktonic cells; experiment: microbe, parasite or virus in culture; details: for MBC: Pseudomonas aeruginosa, PA14, 24 h, read-out: MBC-P, MBC of planktonically grown cells
[4] = tested on: 45E7 mutant (PA1163 transposon insertion) biofilm grown cells
[5] = tested on: 30B1 mutant (PA1874 transposon insertion) biofilm grown cells
[6] = tested on: P. aeruginosa PA14 wild type biofilm grown cells
[7] = tested on: wild type colony biofilm
[8] = tested on: wild type flow cell biofilm

Row | Molecule | MBC [1] | MBC [2] | MBC [3] | MBC of biofilm grown 45E7 lower compared to the wt [4] | MBC-B, MBC of biofilm grown cells [4] | MBC-B, MBC of biofilm grown cells [5] | MBC-B, MBC of biofilm grown cells [6] | decrease of planktonic MBC relative to the biofilm-grown bacteria [3] | drop of viability in colony biofilm [7] | live versus dead cells in Tb-treated biofilm (BacLight) [8] | MBC-P, MBC of planktonically grown cells [1] | MBC-P, MBC of planktonically grown cells [2] | MBC-P, MBC of planktonically grown cells [3]
1 | O=C(O)c1cn(C2CC2)c2cc(N3CCNCC3)c(F)cc2c1=O [Cip, ciprofloxacin] | 4 µg/mL | 4 µg/mL | 4 µg/mL | 8 fold | 6 µg/mL | 12.5 µg/mL | 50 µg/mL |  |  |  |  |  | 
2 | NC[C@H]1O[C@H](O[C@H]2[C@H](O)[C@@H](O[C@H]3O[C@H](CO)[C@@H](O)[C@H](N)[C@H]3O)[C@H](N)C[C@@H]2N)[C@H](N)C[C@@H]1O [Tb, tobramycin] | 8 µg/mL | 8 µg/mL | 8 µg/mL | 16 fold | 25 µg/mL | 100 µg/mL | 400 µg/mL | 50 fold | ~100 fold | more live than dead cells |  |  | 
3 | gentamycin [Gm] |  |  |  | 8 fold | 60 µg/mL | 250 µg/mL | 500 µg/mL |  |  |  | 40 µg/mL | 40 µg/mL | 40 µg/mL
